Results as given in patent US20220401591A1, “SYSTEM AND METHOD FOR QUANTITATIVE MAPPING OF MITOCHONDRIAL COMPLEX 1” (Lantheus Medical Imaging, Inc., priority 2012, published 2022).

Columns and labels:
[1] = system: mitochondrial complex I (MC-I); experiment: 100 minute dynamic ^18F-Flurpiridaz PET study of binding in the heart, 2-compartment reversible model fit; assay type: in vivo, cynomolgus monkey; conditions: myocardium ROI, 100 min data, 1.25 mCi
Description: Measurement of myocardial blood flow and binding potential with ^18F-Flurpiridaz can be approached with standard methods that are well understood and available in our laboratory. We use a four parameter (K1, k2, k3, k4), two tissue compartment model (FIGS. 1A-1B) to describe Flurpiridaz kinetics. In this model the tracer can be in one of two states, either free, as the injected molecule, or bound to a receptor. In the case of ^18F-Flurpiridaz, previous studies have shown that it binds reversibly to mitochondrial complex I and this is supported by the data presented herein (see Example 3). Referring to FIGS. 1A-1B, the product of plasma concentration (Cp) and transport rate K1 is the force driving the tracer from capillary plasma to the free space (i.e., both free and nonspecifically bound). Conceptually, CF represents free flurpiridaz and CB represents Flurpiridaz binding to the MC-I complex. Corrections (not shown) are included for spillover of activity.
Symbolically, K1 is the plasma-to-tissue transport rate, FE, the product of flow and the unidirectional capillary extraction fraction, E. k2 is a rate constant summarizing the egress from tissue to plasma. The rate constants k3 (kon*B′max) and k4 (koff) provide a summary description of binding and release of tracer. This model, with nonlinear least squares, was used to fit 100 minutes of data obtained in a study of binding in the heart of a cynomolgus monkey (see Example 3). It is anticipated that a similar approach will be adequate for validation studies in pigs. Graphical methods can also be studied and applied for determination of BP, as they may be more appropriate for quantitative parametric images and future translation to human studies. For example, consider: Logan J, Fowler J S, Volkow N D, et al. Graphical analysis of reversible radioligand binding from time-activity measurements applied to [N-11C-methyl]-(-)-cocaine PET studies in human subjects. J Cereb Blood Flow Metab. Sep 1990; 10(5):740-747 and Zhou Y, Ye W, Brasic J R, Crabb A H, Hilton J, Wong D F. A consistent and efficient graphical analysis method to improve the quantification of reversible tracer binding in radioligand receptor dynamic PET studies. Neuroimage. Feb 1 2009; 44(3):661-670. Software programs for both approaches have been developed. Realistic Monte Carlo simulation and sensitivity analysis can be used to determine the precision obtained with a given dose of ^18F-Flurpiridaz and the experimental duration of the study. The structure of ^18F-Flurpiridaz is detailed in FIG. 1C.
Based on preliminary data from a primate study using ^18F-Flurpiridaz, the parameter precision for estimating the MBF and BPP was evaluated. […]

[2] = system: MC-I; experiment: ^18F-Flurpiridaz cardiac dynamic PET in infarcted pig, two-tissue compartment model; assay type: in vivo, domestic swine
Description: In some aspects the model is further developed. The modeling approach is based upon the two-tissue compartment model that describes the uptake and retention of a radiotracer that diffusively exchanges between the blood and tissue, and binds reversibly to a specific target site (FIG. 1A-1B). In this framework the concentration of radiotracer is considered in three distinct states: in the plasma (CP) or one of two tissue states, freely suspended in the tissue fluids (CF) or specifically bound to the target site (CB). Four parameters (K1, k2 , k3, k4) detail the physiological mechanisms underlying uptake and binding. K1 and k2 pertain to the rates of tracer influx (proportional to blood flow) from the vasculature and efflux back out of the tissue, respectively. The ratio K1/k2 is the partition coefficient VND. which reflects non-specific uptake based on properties of the tissue that are not expected to vary regionally. The rate at which tracer binds to the target site is related by k3. The bimolecular nature of associative binding makes k3 a compound parameter, the product of kon (an intrinsic binding rate characteristic to the ligand and target site) and Bmax (the density of the binding sites). For reversibly binding interactions such as between ^18F-Flurpiridaz and MC-I, the return of specifically bound tracer to the free state is portrayed by k4. Here k4 is synonymous with the intrinsic binding dissociation constant koff, which is not expected to differ between regions. In our cardiac application, two additional parameters (fLV, fRV) account for signal contamination from blood pools in the adjacent left and right ventricles. Combinations of individual rate constants yield macroparameters that are robust and informative with regard to radiotracer binding at the target site. These macroparameters include total volume of distribution (VT=[K1/k2][1+k3/k4], the equilibrium ratio of tracer concentration in tissue vs. plasma) and several variants of binding potential (BP, proportional to the target density). […]

[3] = cited from earlier work
[4] = 17 segments fitted independently

SMILES: CC(C)(C)n1ncc(OCc2ccc(COCCF)cc2)c(Cl)c1=O [^18F-Flurpiridaz]
- k2 (egress from tissue to plasma) [1]: 0.075 (SD=4.7%)
- k3/k4 [1]: 1.65 (SD=4.0%)
- k4 (koff, release) [1]: 0.016 (SD=10.4%)
- K1 (plasma-to-tissue transport rate) ([1]; SD from asymptotic covariance matrix): 0.51 (SD=1.5%)
- reduction of K1 in damaged compared to healthy tissue [2, 4]: about 50%
- reduction of VT in damaged compared to healthy tissue [2, 4]: about 75%
- binding reduction (BP) in damaged tissues ([2]; grand fit with common VND across regions): up to 90%
- unidirectional extraction fraction ([3]; at all physiological flow values): ~1
- brain blood barrier passage ([3]; in vivo): crosses the brain blood barrier
